The values below come from ChEMBL document CHEMBL4229524, “Design, synthesis and preclinical evaluation of 5-methyl-N4-aryl-furo[2,3-d]pyrimidines as single agents with combination chemotherapy potential” (Bioorg Med Chem Lett, 2018).

Some results are limits rather than exact numbers.

A short description of test [1]: Resistance index, ratio of IC50 for human HeLa cells to IC50 for human wild-type Hela-beta3 cells. Type of test: functional.
Test [2] is described as follows: Antiproliferative activity against human wild-type Hela-beta3 cells after 72 hrs by sulforhodamine B assay. In kind it is functional. Background: The SRB assay estimates cell density from bound dye.
Test [3] concerns the target Platelet-derived growth factor receptor beta (Homo sapiens, UniProt P09619). The test can be described thus: Inhibition of PDGF-BB-induced PDGFRbeta activation in human SH-SY5Y cells pretreated for 60 mins followed by PDGF-BB addition and measured after 10 mins by ELISA. In kind it is cell-based. Background: ELISA stands for enzyme-linked immunosorbent assay.
Test [4] in a line: Resistance index, ratio of IC50 for human SKOV3-MDR1-M6/6 cells to IC50 for human SKOV3 cells. In kind it is functional.
The next test deals with SK-OV-3. The test can be described thus: Antiproliferative activity against human SKOV3 cells after 72 hrs by sulforhodamine B assay. Type of test: functional, cell-based. The note with it: SK-OV-3, 72 h.
A further test relates to HeLa. Kind of test: Antiproliferative activity against human HeLa cells after 72 hrs by sulforhodamine B assay. In kind it is functional, cell-based.
Test [5] can be described thus: Antiproliferative activity against human SKOV3-MDR1-M6/6 cells after 72 hrs by sulforhodamine B assay. In kind it is functional. The note with it: SKOV3-MDR1-M6/6, 72 h.
Test [6] has as its target Epidermal growth factor receptor (Homo sapiens, UniProt P00533). Type of test: cell-based.
The subject of another test is MDA-MB-435. Kind of test: Antiproliferative activity against human MDA-MB-435 cells after 72 hrs by sulforhodamine B assay. As to conditions: MDA-MB-435, 72 h. In kind it is functional, cell-based.
The test system of the next test is A-431. The test can be described thus: Cytotoxicity against human A431 cells over-expressing EGFR. In kind it is functional, cell-based.
The target of test [7] is Vascular endothelial growth factor receptor 2 (Homo sapiens, UniProt P35968). Type of test: cell-based.
Vascular endothelial growth factor receptor 2, sequence (P35968 whole entry): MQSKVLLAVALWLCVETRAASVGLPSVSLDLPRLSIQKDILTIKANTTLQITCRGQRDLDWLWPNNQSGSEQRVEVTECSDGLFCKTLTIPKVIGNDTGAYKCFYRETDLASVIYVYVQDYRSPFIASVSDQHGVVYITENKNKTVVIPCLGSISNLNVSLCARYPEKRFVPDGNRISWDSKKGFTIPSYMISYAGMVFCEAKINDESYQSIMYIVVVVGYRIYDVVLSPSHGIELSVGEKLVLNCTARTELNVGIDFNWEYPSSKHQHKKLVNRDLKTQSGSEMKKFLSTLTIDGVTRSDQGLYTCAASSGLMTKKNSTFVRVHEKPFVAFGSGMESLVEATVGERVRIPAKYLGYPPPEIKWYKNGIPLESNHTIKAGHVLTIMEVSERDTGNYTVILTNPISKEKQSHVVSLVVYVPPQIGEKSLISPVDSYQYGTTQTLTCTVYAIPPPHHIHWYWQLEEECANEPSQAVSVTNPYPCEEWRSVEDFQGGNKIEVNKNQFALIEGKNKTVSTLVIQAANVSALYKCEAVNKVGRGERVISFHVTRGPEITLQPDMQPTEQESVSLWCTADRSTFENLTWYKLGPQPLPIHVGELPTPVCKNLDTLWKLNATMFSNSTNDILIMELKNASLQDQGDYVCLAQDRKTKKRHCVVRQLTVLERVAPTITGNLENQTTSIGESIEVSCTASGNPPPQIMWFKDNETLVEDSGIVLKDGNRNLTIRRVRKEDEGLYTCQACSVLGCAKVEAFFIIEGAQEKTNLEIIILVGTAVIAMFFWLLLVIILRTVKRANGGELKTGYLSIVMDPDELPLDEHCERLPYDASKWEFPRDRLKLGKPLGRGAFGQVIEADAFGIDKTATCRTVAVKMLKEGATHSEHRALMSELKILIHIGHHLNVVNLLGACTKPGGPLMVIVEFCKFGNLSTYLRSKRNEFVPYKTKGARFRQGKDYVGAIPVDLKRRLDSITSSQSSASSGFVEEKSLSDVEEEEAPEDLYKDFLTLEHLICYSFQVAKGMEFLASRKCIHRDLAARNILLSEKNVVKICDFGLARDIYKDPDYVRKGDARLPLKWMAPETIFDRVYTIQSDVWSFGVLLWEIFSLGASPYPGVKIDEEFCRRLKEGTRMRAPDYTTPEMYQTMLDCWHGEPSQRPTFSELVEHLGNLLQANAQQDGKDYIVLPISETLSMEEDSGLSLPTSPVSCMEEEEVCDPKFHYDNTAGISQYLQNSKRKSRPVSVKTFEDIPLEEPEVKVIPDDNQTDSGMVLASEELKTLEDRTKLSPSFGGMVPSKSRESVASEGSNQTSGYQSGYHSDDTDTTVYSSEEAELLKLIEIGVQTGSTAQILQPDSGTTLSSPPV
For test [8], the system named is Chorioallantoic membrane. Kind of test: Antiangiogenic activity in Leghorn chicken embryo chorioallantoic membrane after 40 hrs by microscopic analysis. Type of test: functional, tissue-based. The note with it: Gallus gallus.
In another test the test system is A10. The test can be described thus: Induction of microtubule depolymerization in rat A10 cells after 18 hrs by indirect immunofluorescence method. In kind it is functional, cell-based. As to conditions: A10, 18 h.
Test [9] deals with Chorioallantoic membrane. The test can be described thus: Potency index, ratio of sunitinib IC50 to test compound IC50 for antiangiogenic activity in Leghorn chicken embryo chorioallantoic membrane. The note with it: Gallus gallus. In kind it is functional, tissue-based.

Epidermal growth factor receptor, sequence (P00533 whole entry): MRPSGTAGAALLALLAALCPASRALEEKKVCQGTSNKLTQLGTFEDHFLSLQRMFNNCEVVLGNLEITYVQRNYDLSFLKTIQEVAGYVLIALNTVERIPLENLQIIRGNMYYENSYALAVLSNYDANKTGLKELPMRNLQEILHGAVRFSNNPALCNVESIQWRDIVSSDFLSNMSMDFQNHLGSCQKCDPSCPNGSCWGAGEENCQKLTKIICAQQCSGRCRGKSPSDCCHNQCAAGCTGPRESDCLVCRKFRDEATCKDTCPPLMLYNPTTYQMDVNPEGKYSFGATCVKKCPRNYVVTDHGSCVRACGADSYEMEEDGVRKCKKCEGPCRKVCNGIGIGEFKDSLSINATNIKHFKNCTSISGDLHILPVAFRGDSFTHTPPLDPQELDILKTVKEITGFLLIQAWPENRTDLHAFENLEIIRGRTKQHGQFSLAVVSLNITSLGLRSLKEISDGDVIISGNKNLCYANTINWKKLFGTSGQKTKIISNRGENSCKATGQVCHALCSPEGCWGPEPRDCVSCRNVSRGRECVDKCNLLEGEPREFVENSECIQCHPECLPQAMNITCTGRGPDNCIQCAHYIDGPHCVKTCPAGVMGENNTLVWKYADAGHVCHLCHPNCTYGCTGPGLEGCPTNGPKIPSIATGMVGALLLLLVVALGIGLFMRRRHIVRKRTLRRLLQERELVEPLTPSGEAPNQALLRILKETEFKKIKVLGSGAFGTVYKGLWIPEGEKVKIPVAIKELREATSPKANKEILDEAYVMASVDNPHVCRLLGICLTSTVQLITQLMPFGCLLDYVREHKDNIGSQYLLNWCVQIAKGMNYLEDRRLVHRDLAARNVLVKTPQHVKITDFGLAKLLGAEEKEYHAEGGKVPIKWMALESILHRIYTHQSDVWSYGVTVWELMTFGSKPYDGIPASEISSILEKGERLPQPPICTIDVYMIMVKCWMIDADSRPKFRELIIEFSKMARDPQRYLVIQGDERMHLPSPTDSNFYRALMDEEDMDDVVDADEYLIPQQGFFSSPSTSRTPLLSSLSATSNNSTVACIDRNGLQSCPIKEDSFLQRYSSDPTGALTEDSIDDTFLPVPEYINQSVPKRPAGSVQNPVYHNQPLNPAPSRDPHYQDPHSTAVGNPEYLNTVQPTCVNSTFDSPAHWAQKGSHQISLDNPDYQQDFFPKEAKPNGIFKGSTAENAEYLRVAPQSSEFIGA
Platelet-derived growth factor receptor beta, sequence (P09619 whole entry): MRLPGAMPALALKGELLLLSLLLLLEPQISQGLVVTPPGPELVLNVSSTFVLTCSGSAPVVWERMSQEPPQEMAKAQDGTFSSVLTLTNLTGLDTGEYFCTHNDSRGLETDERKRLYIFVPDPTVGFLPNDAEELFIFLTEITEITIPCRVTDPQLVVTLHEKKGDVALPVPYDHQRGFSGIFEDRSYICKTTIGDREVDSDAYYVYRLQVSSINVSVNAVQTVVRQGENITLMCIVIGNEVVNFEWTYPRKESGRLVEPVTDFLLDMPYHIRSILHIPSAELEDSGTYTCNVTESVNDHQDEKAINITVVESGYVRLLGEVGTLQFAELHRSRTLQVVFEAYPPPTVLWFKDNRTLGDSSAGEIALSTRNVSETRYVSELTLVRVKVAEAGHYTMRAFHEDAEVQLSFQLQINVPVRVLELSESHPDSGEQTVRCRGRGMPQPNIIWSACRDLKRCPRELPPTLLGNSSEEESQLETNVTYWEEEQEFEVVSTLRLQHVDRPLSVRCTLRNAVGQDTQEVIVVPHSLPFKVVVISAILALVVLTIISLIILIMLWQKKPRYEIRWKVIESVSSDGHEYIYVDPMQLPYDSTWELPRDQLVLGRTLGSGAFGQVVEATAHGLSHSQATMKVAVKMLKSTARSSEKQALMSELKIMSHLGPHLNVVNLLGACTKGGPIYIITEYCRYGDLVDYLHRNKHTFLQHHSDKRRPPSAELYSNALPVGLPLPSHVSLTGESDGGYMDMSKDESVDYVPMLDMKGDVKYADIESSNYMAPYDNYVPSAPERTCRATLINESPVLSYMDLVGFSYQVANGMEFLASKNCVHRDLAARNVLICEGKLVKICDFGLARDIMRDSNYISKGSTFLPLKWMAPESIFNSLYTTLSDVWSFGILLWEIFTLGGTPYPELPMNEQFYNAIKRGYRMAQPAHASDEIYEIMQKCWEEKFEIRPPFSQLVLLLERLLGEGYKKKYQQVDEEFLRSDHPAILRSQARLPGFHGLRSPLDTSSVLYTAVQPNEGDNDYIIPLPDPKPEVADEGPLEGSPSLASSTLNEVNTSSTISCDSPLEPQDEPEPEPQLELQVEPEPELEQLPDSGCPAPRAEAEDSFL

Broadly, the IC50 is the midpoint of a concentration-inhibition curve. One may read the EC50 as the concentration needed to bring the measured effect to its halfway point. `CNc1ccc(N(C)c2ncnc3occ(C)c23)cc1`: the “Ratio IC50” value in [1] is on record as 1.2; in test [4] it was 1.1. Besides, the IC50 in test [2] is 86 nM; in [3] it was 57.8 nM; in the test on SK-OV-3, 95 nM; in the test with HeLa, 74 nM; in test [5] it was 101 nM; in test [6] it was 6.4 nM. Besides, the IC50 in the test with MDA-MB-435 was found to be 74 nM; in the test with A-431, 2.9 nM; in test [7] it was 12.7 nM; in the test with Chorioallantoic membrane [8], 707 nM. Moreover, in the test on A10, a half-maximal response (EC50) required 240 nM.
In the case of `CCCN(c1ccc(OC)cc1)c1ncnc2occ(C)c12`, the IC50 in test [3] was 38.9 nM; in test [6], 7.1 nM; with A-431, 2.3 nM; in test [7], 12 nM; with Chorioallantoic membrane [8] it was 301 nM. Moreover, the Ratio IC50 in the test on Chorioallantoic membrane [9] was found to be 4.
Turning to `Cc1coc2ncnc(Nc3ccc(N(C)C)cc3)c12`, the IC50 in test [3], in [6] and in [7] was more than 200 nM in each case. This molecule registered an EC50 in the test on A10 of more than 10000 nM.
Turning to `Cc1coc2ncnc(N(C)c3ccc([N+](=O)[O-])cc3)c12`, the half-inhibitory concentration (IC50) in [3] was more than 200 nM; in test [6], more than 200 nM; with A-431 it was 433 nM; in test [7], more than 200 nM; in the test on Chorioallantoic membrane [8], 1060 nM. Moreover, the EC50 with A10 is more than 10000 nM.
On to `CC(=O)O[C@H]1C(=O)[C@@]2(C)[C@H]([C@H](OC(=O)c3ccccc3)[C@]3(O)C[C@H](OC(=O)[C@H](O)[C@@H](NC(=O)c4ccccc4)c4ccccc4)C(C)=C1C3(C)C)[C@]1(OC(C)=O)CO[C@@H]1C[C@@H]2O` [PACLITAXEL], for which the values for the IC50 (in test [2]; in the test on SK-OV-3) were 24 nM and 5 nM, respectively.
Turning to `COc1ccc(N(c2ncnc3occ(C)c23)C(C)C)cc1`, the IC50 in [3] was 42.6 nM; in test [6] it was 10.1 nM; in the test with A-431, 4.8 nM; in [7], 23.4 nM; in the test with Chorioallantoic membrane [8], 480 nM.
Take `CCc1ccc(N(C)c2ncnc3occ(C)c23)cc1`: the half-inhibitory concentration (IC50) was found to be 28.9 nM in test [3]; 4 nM in test [6]; 1.4 nM in the test with A-431; 7.8 nM in [7]; 287 nM in the test with Chorioallantoic membrane [8]. Moreover, in the test on Chorioallantoic membrane [9], the Ratio IC50 is 4.
On to `CNc1ccc(Nc2ncnc3occ(C)c23)cc1`, for which the concentration for half-maximal inhibition (IC50) in [3], in test [6] and in [7] was more than 200 nM in each case. This molecule gave an EC50 in the test with A10 of more than 10000 nM.
As for `CSc1ccc(N(C)c2ncnc3occ(C)c23)cc1`, the IC50 is 62.2 nM in [3]; 7.2 nM in test [6]; 2.9 nM with A-431; 13.6 nM in [7]; 520 nM with Chorioallantoic membrane [8].
As for `Cc1coc2ncnc(Nc3ccc([N+](=O)[O-])cc3)c12`, the IC50 in [3], in [6] and in test [7] was more than 200 nM each time. In addition, the EC50 in the test with A10 is more than 10000 nM.
Regarding `CCN(c1ccc(OC)cc1)c1ncnc2occ(C)c12`, the half-maximal inhibitory concentration (IC50) in test [3] stood at 51.4 nM; in test [6], 92.5 nM; in the test with A-431, 3.4 nM; in [7], 67.3 nM; in the test on Chorioallantoic membrane [8], 812 nM.
`COc1ccc(Nc2ncnc3occ(C)c23)cc1`: the IC50 came out at 57.3 nM in test [3]; 283 nM in test [6]; 292 nM with A-431; 38.1 nM in test [7]; 445 nM in the test on Chorioallantoic membrane [8].
As for `COc1ccc(/C=C\c2cc(OC)c(OC)c(OC)c2)cc1O` [COMBRETASTATIN A4], the response in the test on A10 was half-maximal at 9.8 nM (EC50).
